{"source": "patent US12502362B2", "about": "“Inhibitors of nucleotidyltransferase superfamily enzymes as antibiotics” (priority 2017, dated 2025)", "format_in_all_cases": "cell-based", "key": {"[1]": {"system": "Enterobacter cloacae complex", "experiment": "Antibiotic susceptibility of Enterobacter cloacae complex strain", "settings": "Ecc1 (Enterobacter cloacae complex)", "text": "(§1) All these MDR-bacteria are at least resistant to two classes of the antibiotics among five groups and/or specific antibiotics including quinolones/fluorquinolones, carbapenems, cephalosporins, aminoglycosides and piperacillin-tazobactam."}, "Morganella morganii": {"system": "Morganella morganii", "experiment": "Antibiotic susceptibility of Morganella morganii strain", "settings": "Mm1 (Morganella morganii)", "text": "as §1"}, "Klebsiella pneumonia": {"system": "Klebsiella pneumonia", "experiment": "Antibiotic susceptibility of Klebsiella pneumonia strains", "text": "as §1"}, "Citrobacter koseri": {"system": "Citrobacter koseri", "experiment": "Antibiotic susceptibility of Citrobacter koseri strain", "settings": "Ck1 (Citrobacter koseri)", "text": "as §1"}, "[2]": {"system": "MDR Acinetobacter baumannii", "text": "as §1"}, "MDR E. coli": {"system": "MDR E. coli", "text": "as §1"}}, "note": "Where two headings read alike, the source gives them in different places."}
{"compound": "CO/N=C(\\C(=O)N[C@@H]1C(=O)N2C(C(=O)O)=C(CSc3nc(=O)c(=O)[nH]n3C)CS[C@H]12)c1csc(N)n1", "note": "[CRO, Ceftriaxone]", "values": [{"measurement": "Antibiotic susceptibility", "setting": "[1]", "value": "R"}, {"measurement": "Antibiotic susceptibility", "setting": "Morganella morganii", "value": "I"}, {"measurement": "Antibiotic susceptibility", "setting": "Klebsiella pneumonia; Kp1 (Klebsiella pneumonia)", "value": "R"}, {"measurement": "Antibiotic susceptibility", "setting": "Klebsiella pneumonia; Kp6 (Klebsiella pneumonia)", "value": "R"}, {"measurement": "Antibiotic susceptibility", "setting": "Citrobacter koseri", "value": "S"}, {"measurement": "Antibiotic susceptibility", "setting": "[2]; Ab1 (Acinetobacter baumannii)", "value": "R"}, {"measurement": "Antibiotic susceptibility", "setting": "[2]; Ab2 (Acinetobacter baumannii)", "value": "R"}, {"measurement": "Antibiotic susceptibility", "setting": "[2]; Ab3 (Acinetobacter baumannii)", "value": "R"}, {"measurement": "Antibiotic susceptibility", "setting": "[2]; Ab4 (Acinetobacter baumannii)", "value": "R"}, {"measurement": "Antibiotic susceptibility", "setting": "[2]; Ab5 (Acinetobacter baumannii)", "value": "R"}, {"measurement": "Antibiotic susceptibility", "setting": "MDR E. coli; Ec1 (E. coli)", "value": "R"}, {"measurement": "Antibiotic susceptibility", "setting": "MDR E. coli; Ec2 (E. coli)", "value": "R"}, {"measurement": "Antibiotic susceptibility", "setting": "MDR E. coli; Ec3 (E. coli)", "value": "R"}, {"measurement": "Antibiotic susceptibility", "setting": "MDR E. coli; Ec4 (E. coli)", "value": "R"}, {"measurement": "Antibiotic susceptibility", "setting": "MDR E. coli; Ec5 (E. coli)", "value": "R"}]}
{"compound": "C[C@@H](O)[C@H]1C(=O)N2C(C(=O)O)=C(SCCN=CN)C[C@H]12", "note": "[IPM, Imipenem]", "values": [{"measurement": "Antibiotic susceptibility", "setting": "[1]", "value": "S"}, {"measurement": "Antibiotic susceptibility", "setting": "Morganella morganii", "value": "S"}, {"measurement": "Antibiotic susceptibility", "setting": "Klebsiella pneumonia; Kp1 (Klebsiella pneumonia)", "value": "S"}, {"measurement": "Antibiotic susceptibility", "setting": "Klebsiella pneumonia; Kp6 (Klebsiella pneumonia)", "value": "S"}, {"measurement": "Antibiotic susceptibility", "setting": "Citrobacter koseri", "value": "S"}, {"measurement": "Antibiotic susceptibility", "setting": "[2]; Ab1 (Acinetobacter baumannii)", "value": "S"}, {"measurement": "Antibiotic susceptibility", "setting": "[2]; Ab2 (Acinetobacter baumannii)", "value": "I"}, {"measurement": "Antibiotic susceptibility", "setting": "[2]; Ab3 (Acinetobacter baumannii)", "value": "I"}, {"measurement": "Antibiotic susceptibility", "setting": "[2]; Ab4 (Acinetobacter baumannii)", "value": "I"}, {"measurement": "Antibiotic susceptibility", "setting": "[2]; Ab5 (Acinetobacter baumannii)", "value": "R"}, {"measurement": "Antibiotic susceptibility", "setting": "MDR E. coli; Ec1 (E. coli)", "value": "S"}, {"measurement": "Antibiotic susceptibility", "setting": "MDR E. coli; Ec2 (E. coli)", "value": "S"}, {"measurement": "Antibiotic susceptibility", "setting": "MDR E. coli; Ec3 (E. coli)", "value": "S"}, {"measurement": "Antibiotic susceptibility", "setting": "MDR E. coli; Ec4 (E. coli)", "value": "S"}, {"measurement": "Antibiotic susceptibility", "setting": "MDR E. coli; Ec5 (E. coli)", "value": "S"}]}
{"compound": "NC[C@H]1O[C@H](O[C@H]2[C@H](O)[C@@H](O[C@H]3O[C@H](CO)[C@@H](O)[C@H](N)[C@H]3O)[C@H](N)C[C@@H]2N)[C@H](N)C[C@@H]1O", "note": "[TOB, Tobramycin]", "values": [{"measurement": "Antibiotic susceptibility", "setting": "[1]", "value": "S"}, {"measurement": "Antibiotic susceptibility", "setting": "Morganella morganii", "value": "I"}, {"measurement": "Antibiotic susceptibility", "setting": "Klebsiella pneumonia; Kp1 (Klebsiella pneumonia)", "value": "S"}, {"measurement": "Antibiotic susceptibility", "setting": "Klebsiella pneumonia; Kp6 (Klebsiella pneumonia)", "value": "R"}, {"measurement": "Antibiotic susceptibility", "setting": "Citrobacter koseri", "value": "I"}, {"measurement": "Antibiotic susceptibility", "setting": "[2]; Ab1 (Acinetobacter baumannii)", "value": "S"}, {"measurement": "Antibiotic susceptibility", "setting": "[2]; Ab2 (Acinetobacter baumannii)", "value": "S"}, {"measurement": "Antibiotic susceptibility", "setting": "[2]; Ab3 (Acinetobacter baumannii)", "value": "S"}, {"measurement": "Antibiotic susceptibility", "setting": "[2]; Ab4 (Acinetobacter baumannii)", "value": "S"}, {"measurement": "Antibiotic susceptibility", "setting": "[2]; Ab5 (Acinetobacter baumannii)", "value": "I"}, {"measurement": "Antibiotic susceptibility", "setting": "MDR E. coli; Ec1 (E. coli)", "value": "I"}, {"measurement": "Antibiotic susceptibility", "setting": "MDR E. coli; Ec2 (E. coli)", "value": "I"}, {"measurement": "Antibiotic susceptibility", "setting": "MDR E. coli; Ec3 (E. coli)", "value": "I"}, {"measurement": "Antibiotic susceptibility", "setting": "MDR E. coli; Ec4 (E. coli)", "value": "R"}, {"measurement": "Antibiotic susceptibility", "setting": "MDR E. coli; Ec5 (E. coli)", "value": "R"}]}
{"compound": "Amoxicillin-clavulanic acid [AMC]", "values": [{"measurement": "Antibiotic susceptibility", "setting": "[1]", "value": "R"}, {"measurement": "Antibiotic susceptibility", "setting": "Morganella morganii", "value": "R"}, {"measurement": "Antibiotic susceptibility", "setting": "Klebsiella pneumonia; Kp1 (Klebsiella pneumonia)", "value": "S"}, {"measurement": "Antibiotic susceptibility", "setting": "Klebsiella pneumonia; Kp6 (Klebsiella pneumonia)", "value": "I"}, {"measurement": "Antibiotic susceptibility", "setting": "Citrobacter koseri", "value": "I"}, {"measurement": "Antibiotic susceptibility", "setting": "[2]; Ab1 (Acinetobacter baumannii)", "value": "R"}, {"measurement": "Antibiotic susceptibility", "setting": "[2]; Ab2 (Acinetobacter baumannii)", "value": "R"}, {"measurement": "Antibiotic susceptibility", "setting": "[2]; Ab3 (Acinetobacter baumannii)", "value": "R"}, {"measurement": "Antibiotic susceptibility", "setting": "[2]; Ab4 (Acinetobacter baumannii)", "value": "R"}, {"measurement": "Antibiotic susceptibility", "setting": "[2]; Ab5 (Acinetobacter baumannii)", "value": "S"}, {"measurement": "Antibiotic susceptibility", "setting": "MDR E. coli; Ec1 (E. coli)", "value": "S"}, {"measurement": "Antibiotic susceptibility", "setting": "MDR E. coli; Ec2 (E. coli)", "value": "S"}, {"measurement": "Antibiotic susceptibility", "setting": "MDR E. coli; Ec3 (E. coli)", "value": "S"}, {"measurement": "Antibiotic susceptibility", "setting": "MDR E. coli; Ec4 (E. coli)", "value": "S"}, {"measurement": "Antibiotic susceptibility", "setting": "MDR E. coli; Ec5 (E. coli)", "value": "I"}]}
{"compound": "Piperacillin-tazobactam [TZP]", "values": [{"measurement": "Antibiotic susceptibility", "setting": "[1]", "value": "R"}, {"measurement": "Antibiotic susceptibility", "setting": "Morganella morganii", "value": "S"}, {"measurement": "Antibiotic susceptibility", "setting": "Klebsiella pneumonia; Kp1 (Klebsiella pneumonia)", "value": "S"}, {"measurement": "Antibiotic susceptibility", "setting": "Klebsiella pneumonia; Kp6 (Klebsiella pneumonia)", "value": "R"}, {"measurement": "Antibiotic susceptibility", "setting": "Citrobacter koseri", "value": "I"}, {"measurement": "Antibiotic susceptibility", "setting": "[2]; Ab3 (Acinetobacter baumannii)", "value": "R"}, {"measurement": "Antibiotic susceptibility", "setting": "MDR E. coli; Ec1 (E. coli)", "value": "S"}, {"measurement": "Antibiotic susceptibility", "setting": "MDR E. coli; Ec2 (E. coli)", "value": "S"}, {"measurement": "Antibiotic susceptibility", "setting": "MDR E. coli; Ec3 (E. coli)", "value": "S"}, {"measurement": "Antibiotic susceptibility", "setting": "MDR E. coli; Ec4 (E. coli)", "value": "S"}, {"measurement": "Antibiotic susceptibility", "setting": "MDR E. coli; Ec5 (E. coli)", "value": "S"}]}
